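Values below derive from 48-hour exposures of cells grown in 96-well plates, with endpoints linearly interpolated between the two concentrations bracketing the appropriate inhibition level. Abbreviation: GI50, concentration required for 50% inhibition of growth.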 Active and inactive are the calls of the source. Rule as the data show it: active = GI50 up to about 1.1 µM and inactive = higher.
How the values were obtained:
Experiment in all cases: inhibition of tumour cell growth, NCI panel, 48 h
786-0 = tested on: 786-0
A498 = tested on: A498
A549 = tested on: A549
ACHN = tested on: ACHN
CAKI-1 = tested on: CAKI-1
CCRF-CEM = tested on: CCRF-CEM
COLO 205 = tested on: COLO 205
DLD-1 = tested on: DLD-1
DMS-114 = tested on: DMS-114
DMS-273 = tested on: DMS-273
EKVX = tested on: EKVX
HCC 2998 = tested on: HCC 2998
HCT-116 = tested on: HCT-116
HCT-15 = tested on: HCT-15
HL-60 = tested on: HL-60
HOP-18 = tested on: HOP-18
HOP-62 = tested on: HOP-62
HOP-92 = tested on: HOP-92
HT-29 = tested on: HT-29
IGROV-1 = tested on: IGROV-1
K562 = tested on: K562
KM-20L2 = tested on: KM-20L2
KM12 = tested on: KM12
LXFL 529 = tested on: LXFL 529
M14 = tested on: M14
M19-MEL = tested on: M19-MEL
MOLT-4 = tested on: MOLT-4
Malme-3M = tested on: Malme-3M
NCI-H226 = tested on: NCI-H226
NCI-H23 = tested on: NCI-H23
NCI-H460 = tested on: NCI-H460
NCI-H522 = tested on: NCI-H522
OVCAR-3 = tested on: OVCAR-3
OVCAR-4 = tested on: OVCAR-4
OVCAR-5 = tested on: OVCAR-5
OVCAR-8 = tested on: OVCAR-8
RPMI-8226 = tested on: RPMI-8226
RXF 393 = tested on: RXF 393
RXF 631 = tested on: RXF 631
SF-268 = tested on: SF-268
SF-295 = tested on: SF-295
SF-539 = tested on: SF-539
SK-MEL-28 = tested on: SK-MEL-28
SK-MEL-2 = tested on: SK-MEL-2
SK-MEL-5 = tested on: SK-MEL-5
SK-OV-3 = tested on: SK-OV-3
SN12C = tested on: SN12C
SNB-19 = tested on: SNB-19
SNB-75 = tested on: SNB-75
SNB-78 = tested on: SNB-78
SR = tested on: SR
SW-620 = tested on: SW-620
TK-10 = tested on: TK-10
U-251 = tested on: U-251
UACC-257 = tested on: UACC-257
UACC-62 = tested on: UACC-62
UO-31 = tested on: UO-31
XF498 = tested on: XF498
LOX IMVI = tested on: LOX IMVI

Measured: GI50

N#CC(C(=O)CCCC(=O)Nc1ccccc1[N+](=O)[O-])c1c(Cl)cccc1Cl (stereo not drawn)
> 100 µM: HCT-15
inactive: 786-0 > 100 µM | A498 > 100 µM | A549 > 100 µM | ACHN > 100 µM | CAKI-1 > 100 µM | CCRF-CEM > 100 µM | COLO 205 > 100 µM | DLD-1 > 100 µM | DMS-114 > 100 µM | DMS-273 > 100 µM | EKVX > 100 µM | HCC 2998 > 100 µM | HCT-116 > 100 µM | HL-60 99.1 µM | HOP-18 31 µM | HOP-62 > 100 µM | HOP-92 61.9 µM | HT-29 > 100 µM | IGROV-1 > 100 µM | K562 > 100 µM | KM-20L2 > 100 µM | KM12 > 100 µM | LXFL 529 > 100 µM | M14 > 100 µM | M19-MEL > 100 µM | MOLT-4 > 100 µM | Malme-3M > 100 µM | NCI-H226 > 100 µM | NCI-H23 > 100 µM | NCI-H460 > 100 µM | NCI-H522 > 100 µM | OVCAR-3 > 100 µM | OVCAR-4 > 100 µM | OVCAR-5 > 100 µM | OVCAR-8 > 100 µM | RPMI-8226 > 100 µM | RXF 393 > 100 µM | RXF 631 > 100 µM | SF-268 > 100 µM | SF-295 > 100 µM | SF-539 > 100 µM | SK-MEL-28 > 100 µM | SK-MEL-2 > 100 µM | SK-MEL-5 > 100 µM | SK-OV-3 > 100 µM | SN12C > 100 µM | SNB-19 > 100 µM | SNB-75 > 100 µM | SNB-78 > 100 µM | SR > 100 µM | SW-620 > 100 µM | TK-10 > 100 µM | U-251 > 100 µM | UACC-257 > 100 µM | UACC-62 > 100 µM | UO-31 > 100 µM | XF498 > 100 µM

Clc1cccc(N2CCN(CCCN3CCc4c([nH]c5ccccc45)C3c3cccnc3)CC2)c1 (stereo not drawn)
8.81 µM: HCT-15
inactive: 786-0 3.29 µM | A498 10.4 µM | A549 7.78 µM | ACHN 12.4 µM | CAKI-1 9.68 µM | CCRF-CEM 6.76 µM | COLO 205 2.88 µM | DLD-1 11.2 µM | DMS-114 5.52 µM | DMS-273 5.98 µM | EKVX 15.3 µM | HCT-116 5.78 µM | HL-60 2.46 µM | HOP-18 14.3 µM | HOP-62 14.3 µM | HOP-92 8.69 µM | HT-29 3.89 µM | IGROV-1 29.6 µM | K562 3.78 µM | KM-20L2 4.28 µM | KM12 > 10 µM | LOX IMVI 8.17 µM | LXFL 529 6.52 µM | M14 2.01 µM | M19-MEL 10.5 µM | MOLT-4 3.88 µM | Malme-3M 2.54 µM | NCI-H226 18.1 µM | NCI-H23 10.7 µM | NCI-H460 6.22 µM | NCI-H522 11.8 µM | OVCAR-3 2.67 µM | OVCAR-4 6.98 µM | OVCAR-5 7.66 µM | OVCAR-8 10.8 µM | RPMI-8226 6.15 µM | RXF 393 1.58 µM | RXF 631 3.63 µM | SF-295 6.92 µM | SF-539 3.61 µM | SK-MEL-28 3.6 µM | SK-MEL-2 11 µM | SK-MEL-5 5.32 µM | SK-OV-3 14.6 µM | SN12C 12.8 µM | SNB-19 20.6 µM | SNB-75 11 µM | SNB-78 5.69 µM | SR 2.29 µM | SW-620 13 µM | TK-10 > 10 µM | U-251 10.7 µM | UACC-257 4.34 µM | UACC-62 > 10 µM | UO-31 5.15 µM | XF498 4.58 µM

CC(C)c1ccc(/C=C/c2cc(C(=O)NNC(=O)NC3CCCCC3)nc(S)n2)cc1
> 100 µM: HCT-15
inactive: 786-0 > 100 µM | A498 > 100 µM | A549 > 100 µM | ACHN > 100 µM | CAKI-1 > 100 µM | COLO 205 > 100 µM | DLD-1 > 100 µM | DMS-114 > 100 µM | DMS-273 > 100 µM | EKVX > 100 µM | HCC 2998 > 100 µM | HCT-116 > 100 µM | HOP-18 > 100 µM | HOP-62 > 100 µM | HOP-92 > 100 µM | HT-29 > 100 µM | IGROV-1 > 100 µM | KM-20L2 > 100 µM | KM12 > 100 µM | LOX IMVI > 100 µM | LXFL 529 > 100 µM | M14 > 100 µM | M19-MEL > 100 µM | Malme-3M > 100 µM | NCI-H226 > 100 µM | NCI-H23 > 100 µM | NCI-H460 > 100 µM | NCI-H522 > 100 µM | OVCAR-3 > 100 µM | OVCAR-4 > 100 µM | OVCAR-5 > 100 µM | OVCAR-8 > 100 µM | RPMI-8226 > 100 µM | RXF 393 > 100 µM | RXF 631 > 100 µM | SF-268 > 100 µM | SF-295 > 100 µM | SF-539 > 100 µM | SK-MEL-28 > 100 µM | SK-MEL-5 > 100 µM | SK-OV-3 > 100 µM | SN12C > 100 µM | SNB-19 > 100 µM | SNB-75 > 100 µM | SNB-78 > 100 µM | SW-620 > 100 µM | TK-10 > 100 µM | U-251 > 100 µM | UACC-257 > 100 µM | UACC-62 > 100 µM | UO-31 > 100 µM | XF498 > 100 µM

From ChEMBL document CHEMBL1201862, “PubChem BioAssay data set” (2004)
